Measurements taken from US20040171795A1, “Novel peptides” (priority 2000, published 2004).

Experiments:
21mer oligonucleotide = assay: Binding ability to oligonucleotide (electrophoresis); conditions: charge ratio (+/−ratio) of 10
Procedure: The 21mer oligonucleotide prepared by the procedure described in Example 6 (final concentration, 6.7 μM) and the peptide prepared by the procedure described in Examples 1 to 3 were mixed in 20 mM Tris-HCl buffer (pH=7.2) containing 150 mM NaCl at a charge ratio (+/−ratio) of 0 to 10, and the mixture was allowed to stand at 37° C. for 30 minutes. Next, 7.5 μL of this solution was mixed with an equal amount of Tris-borate buffer (pH=8.2) containing 80% formamide, and electrophoresis was conducted on 25% polyacrylamide gel containing 7M urea. After the electrophoresis, the gel was stained with 5% aqueous solution of Stains all (manufactured by Funakoshi) containing 50% formamide and washed with water to thereby determine the binding of the oligonucleotide and the peptide.
The +/−ratio (charge ratio) indicated in FIG. 10 is the ratio of the number (+) of the positively-charged groups in the peptide to the number (−) of negatively-charged groups in the nucleic acid. As evident in FIG. 10, the amount of oligonucleotide that became bound to the peptide increased with the increase in the charge ratio (+/−ratio), and the oligonucleotide was fully bound to the peptide at a charge ratio (+/−ratio) of 10. The peptides of SEQ ID NO:2 to SEQ ID NO:24 were also found to bind at a charge ratio (+/−ratio) of 10.

Vero cell = assay: Introduction of FITC-labeled oligonucleotide, fluorescence microscopy; assay type: cell-based, monkey; conditions: 300 nM FITC-labeled oligonucleotide, 2.5 μM peptide
Procedure: Vero cell was inoculated in the well of a chamber slide (Lab-Tek II chamber slide, size 4 well, manufactured by NALGEN NUNC) at a rate of 1×10^5 cells/well, and the cells were cultivated in DMEM supplemented with 10% FBS in 5% CO2 atmosphere at 37° C. for 24 hours. After removing the medium, opti-MEM containing 300 nM FITC-labeled oligonucleotide prepared in Example 6 and 2.5 μM of the peptide of SEQ ID NO:1 prepared in Example 1 was added, and the cultivation was continued for 4 hours. The medium was replaced with DMEM supplemented with 10% FBS, and the cultivation was continued in 5% CO2 atmosphere at 37° C. for another 24 hours. After washing the cell with PBS, the cells were fixed by using PBS containing 4% paraformaldehyde, and accumulation of FITC-labeled oligonucleotide in the cell nucleus was confirmed by using a fluorescence microscope (AH-3, manufactured by Olympus). […] On the other hand, accumulation of FITC-labeled oligonucleotide in the cell was not confirmed in the absence of the peptide of SEQ ID NO:1.

binding of oligonucleotide to the peptide (21mer oligonucleotide): fully bound
Substance: SEQ ID NO: 1: peptide having the amino acid sequence of SEQ ID NO:1, made by solid phase synthesis (TRYLRIHPRSWVHQIALRLRYLRIHPRSWVHQIALRS; synthetic peptide using an automatic peptide synthesizer)
accumulation of FITC-labeled oligonucleotide in the cell nucleus (Vero cell): FITC-labeled oligonucleotide was accumulated in the cell nucleus
